Laboratory results taken from ChEMBL document CHEMBL5465560, “Selectivity Literature for EUbOPEN Chemogenomic Library” (2024).

Assays:
[1] = target: T1, Serine/threonine-protein kinase Chk1 (Homo sapiens) (UniProt O14757); assay: Selectivity interaction (KinomeScan (DiscoverX)) EUB0000666a CHEK1; conditions: at 10 µM
T1 sequence (whole entry): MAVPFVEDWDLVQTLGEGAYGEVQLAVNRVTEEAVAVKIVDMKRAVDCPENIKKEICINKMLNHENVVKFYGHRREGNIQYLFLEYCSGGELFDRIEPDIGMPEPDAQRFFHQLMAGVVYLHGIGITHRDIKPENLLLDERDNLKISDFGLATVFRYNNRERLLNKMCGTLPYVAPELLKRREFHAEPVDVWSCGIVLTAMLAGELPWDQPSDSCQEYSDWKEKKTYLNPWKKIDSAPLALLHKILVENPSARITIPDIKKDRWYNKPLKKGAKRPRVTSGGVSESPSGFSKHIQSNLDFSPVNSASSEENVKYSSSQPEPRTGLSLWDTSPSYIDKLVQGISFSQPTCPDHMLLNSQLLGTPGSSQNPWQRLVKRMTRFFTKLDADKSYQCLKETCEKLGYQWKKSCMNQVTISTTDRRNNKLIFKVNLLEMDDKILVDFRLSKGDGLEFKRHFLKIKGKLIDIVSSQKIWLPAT

[2] = target: Platelet-derived growth factor receptor alpha (Homo sapiens, UniProt P16234); assay: Selectivity interaction (Kinase panel (Invitrogen)) EUB0000639a PDGFRA; conditions: at 200 nM
Sequence of Platelet-derived growth factor receptor alpha (P16234 whole entry): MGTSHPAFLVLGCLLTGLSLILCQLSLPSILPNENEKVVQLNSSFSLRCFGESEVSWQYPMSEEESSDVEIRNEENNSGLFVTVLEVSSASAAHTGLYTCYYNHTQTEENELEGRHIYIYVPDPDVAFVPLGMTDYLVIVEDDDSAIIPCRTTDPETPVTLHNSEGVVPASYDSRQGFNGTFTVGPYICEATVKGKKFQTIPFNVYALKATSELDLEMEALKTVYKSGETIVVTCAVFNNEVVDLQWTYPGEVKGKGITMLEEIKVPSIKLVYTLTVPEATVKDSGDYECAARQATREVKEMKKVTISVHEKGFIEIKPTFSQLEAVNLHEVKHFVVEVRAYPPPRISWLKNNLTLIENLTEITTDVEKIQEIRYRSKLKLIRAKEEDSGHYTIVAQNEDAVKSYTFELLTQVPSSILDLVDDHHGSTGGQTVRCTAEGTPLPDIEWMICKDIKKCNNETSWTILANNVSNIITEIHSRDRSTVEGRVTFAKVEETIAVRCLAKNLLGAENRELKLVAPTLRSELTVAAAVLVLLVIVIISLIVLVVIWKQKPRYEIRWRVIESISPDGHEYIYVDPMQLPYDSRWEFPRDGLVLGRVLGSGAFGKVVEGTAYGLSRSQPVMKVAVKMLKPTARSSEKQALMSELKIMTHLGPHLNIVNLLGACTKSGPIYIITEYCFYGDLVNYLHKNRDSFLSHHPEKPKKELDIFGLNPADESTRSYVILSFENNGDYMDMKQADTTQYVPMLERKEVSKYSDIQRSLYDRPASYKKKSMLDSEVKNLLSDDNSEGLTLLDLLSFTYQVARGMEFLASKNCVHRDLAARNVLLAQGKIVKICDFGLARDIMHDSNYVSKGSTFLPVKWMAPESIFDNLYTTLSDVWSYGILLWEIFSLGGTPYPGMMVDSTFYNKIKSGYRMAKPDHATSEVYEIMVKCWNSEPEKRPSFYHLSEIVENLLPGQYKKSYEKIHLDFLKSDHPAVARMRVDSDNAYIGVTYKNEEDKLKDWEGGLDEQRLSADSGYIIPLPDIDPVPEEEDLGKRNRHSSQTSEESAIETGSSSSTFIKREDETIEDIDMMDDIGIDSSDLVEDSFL

[3] = target: T2, Inhibitor of nuclear factor kappa-B kinase subunit beta (Homo sapiens) (UniProt O14920); assay: Selectivity interaction (ActivX KiNativ screen (kinase selectivity in THP-1 cell lysates)) EUB0000639a IKBKB; format: subcellular; conditions: lysate, at 0.2 µM
T2 sequence (whole entry): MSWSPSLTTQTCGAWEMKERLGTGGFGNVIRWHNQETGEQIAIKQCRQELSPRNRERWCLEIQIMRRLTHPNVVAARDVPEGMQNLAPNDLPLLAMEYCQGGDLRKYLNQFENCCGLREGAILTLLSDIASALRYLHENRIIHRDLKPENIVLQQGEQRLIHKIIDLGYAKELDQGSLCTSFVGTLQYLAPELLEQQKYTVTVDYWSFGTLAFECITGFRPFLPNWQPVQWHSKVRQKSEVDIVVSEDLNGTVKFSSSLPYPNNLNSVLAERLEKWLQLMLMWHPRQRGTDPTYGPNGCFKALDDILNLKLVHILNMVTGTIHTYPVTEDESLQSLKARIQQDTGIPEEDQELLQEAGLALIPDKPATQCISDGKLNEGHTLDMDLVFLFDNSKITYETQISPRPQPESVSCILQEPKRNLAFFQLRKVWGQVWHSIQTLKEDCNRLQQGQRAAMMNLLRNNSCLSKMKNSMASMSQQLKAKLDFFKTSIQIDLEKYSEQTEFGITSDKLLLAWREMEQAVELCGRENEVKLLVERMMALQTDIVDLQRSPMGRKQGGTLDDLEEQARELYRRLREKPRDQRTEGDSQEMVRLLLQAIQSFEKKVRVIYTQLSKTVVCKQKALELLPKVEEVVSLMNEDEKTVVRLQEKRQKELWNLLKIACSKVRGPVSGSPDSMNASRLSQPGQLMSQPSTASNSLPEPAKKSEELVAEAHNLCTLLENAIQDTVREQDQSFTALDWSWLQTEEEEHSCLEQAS

[4] = target: Tyrosine-protein kinase Fer (Homo sapiens) (UniProt P16591); assay: Selectivity interaction (ActivX KiNativ screen (kinase selectivity in THP-1 cell lysates)) EUB0000639a FER; format: subcellular; conditions: lysate, at 5 µM
Sequence of Tyrosine-protein kinase Fer (Homo sapiens) (P16591 whole entry, looked up): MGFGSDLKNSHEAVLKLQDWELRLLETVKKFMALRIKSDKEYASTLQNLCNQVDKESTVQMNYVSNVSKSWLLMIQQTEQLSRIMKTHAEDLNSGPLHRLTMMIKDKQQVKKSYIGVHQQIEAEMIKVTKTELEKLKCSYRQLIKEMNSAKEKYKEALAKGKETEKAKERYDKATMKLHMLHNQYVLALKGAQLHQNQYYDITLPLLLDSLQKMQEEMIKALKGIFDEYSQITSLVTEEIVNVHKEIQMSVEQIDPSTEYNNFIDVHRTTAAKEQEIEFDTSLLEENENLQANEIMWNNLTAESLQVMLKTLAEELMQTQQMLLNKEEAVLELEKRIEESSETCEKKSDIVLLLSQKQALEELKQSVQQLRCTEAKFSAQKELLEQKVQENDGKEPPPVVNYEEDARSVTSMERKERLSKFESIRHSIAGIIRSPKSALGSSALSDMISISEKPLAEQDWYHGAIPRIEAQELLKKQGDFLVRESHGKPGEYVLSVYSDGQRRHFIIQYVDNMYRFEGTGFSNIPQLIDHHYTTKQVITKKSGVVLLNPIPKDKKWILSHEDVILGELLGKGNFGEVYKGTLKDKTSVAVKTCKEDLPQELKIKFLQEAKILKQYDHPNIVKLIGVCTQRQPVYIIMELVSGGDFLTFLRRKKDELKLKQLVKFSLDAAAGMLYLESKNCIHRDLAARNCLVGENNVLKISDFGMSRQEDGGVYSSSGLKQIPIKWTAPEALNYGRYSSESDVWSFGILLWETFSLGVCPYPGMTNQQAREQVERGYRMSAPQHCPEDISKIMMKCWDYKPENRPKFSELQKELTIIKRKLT

[5] = target: 5'-AMP-activated protein kinase catalytic subunit alpha-2 (Homo sapiens) (UniProt P54646); assay: Selectivity interaction (ActivX KiNativ screen (ex vivo kinase selectivity in human PBMCs)) EUB0001619a PRKAA2; format: cell-based; conditions: PBMC, at 1 µM
Sequence of 5'-AMP-activated protein kinase catalytic subunit alpha-2 (Homo sapiens) (P54646 whole entry, looked up): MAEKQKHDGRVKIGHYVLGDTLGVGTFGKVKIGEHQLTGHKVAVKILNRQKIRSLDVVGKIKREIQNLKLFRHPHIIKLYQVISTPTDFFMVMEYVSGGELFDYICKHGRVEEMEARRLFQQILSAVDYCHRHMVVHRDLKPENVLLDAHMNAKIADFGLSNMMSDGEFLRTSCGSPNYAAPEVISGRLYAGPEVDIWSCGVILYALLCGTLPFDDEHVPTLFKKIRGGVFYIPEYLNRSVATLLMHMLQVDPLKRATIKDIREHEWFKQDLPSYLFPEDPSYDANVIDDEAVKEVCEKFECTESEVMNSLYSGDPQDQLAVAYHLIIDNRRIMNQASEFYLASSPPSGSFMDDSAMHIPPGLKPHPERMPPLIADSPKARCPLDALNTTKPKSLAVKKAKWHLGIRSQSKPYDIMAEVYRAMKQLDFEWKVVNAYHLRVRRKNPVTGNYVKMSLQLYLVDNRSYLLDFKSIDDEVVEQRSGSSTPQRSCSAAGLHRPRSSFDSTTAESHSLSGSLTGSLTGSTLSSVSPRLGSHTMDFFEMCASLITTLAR

[6] = target: Proto-oncogene tyrosine-protein kinase Src (Homo sapiens, UniProt P12931); assay: Selectivity interaction (ActivX KiNativ screen (ex vivo kinase selectivity in human PBMCs)) EUB0001619a SRC; format: cell-based; conditions: PBMC, at 1 µM
Sequence of Proto-oncogene tyrosine-protein kinase Src (P12931 2-536 limits assumed): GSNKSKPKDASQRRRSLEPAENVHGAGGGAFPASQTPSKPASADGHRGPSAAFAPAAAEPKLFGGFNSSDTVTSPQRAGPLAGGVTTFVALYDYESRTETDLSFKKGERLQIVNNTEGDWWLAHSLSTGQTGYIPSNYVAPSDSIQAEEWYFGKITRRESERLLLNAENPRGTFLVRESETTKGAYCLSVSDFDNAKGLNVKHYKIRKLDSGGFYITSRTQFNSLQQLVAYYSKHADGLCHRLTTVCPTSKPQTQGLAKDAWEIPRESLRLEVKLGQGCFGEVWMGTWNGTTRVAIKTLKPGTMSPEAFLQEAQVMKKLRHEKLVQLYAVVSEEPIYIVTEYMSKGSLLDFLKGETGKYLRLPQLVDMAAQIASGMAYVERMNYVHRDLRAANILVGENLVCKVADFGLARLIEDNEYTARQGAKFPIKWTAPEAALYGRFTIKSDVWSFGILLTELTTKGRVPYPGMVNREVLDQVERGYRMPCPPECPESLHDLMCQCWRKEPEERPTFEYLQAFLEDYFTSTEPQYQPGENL

[7] = target: T3, Tyrosine-protein kinase receptor TYRO3 (Homo sapiens) (UniProt Q06418); assay: Selectivity interaction (ProQinase) EUB0000171b TYRO3
T3 sequence (whole entry): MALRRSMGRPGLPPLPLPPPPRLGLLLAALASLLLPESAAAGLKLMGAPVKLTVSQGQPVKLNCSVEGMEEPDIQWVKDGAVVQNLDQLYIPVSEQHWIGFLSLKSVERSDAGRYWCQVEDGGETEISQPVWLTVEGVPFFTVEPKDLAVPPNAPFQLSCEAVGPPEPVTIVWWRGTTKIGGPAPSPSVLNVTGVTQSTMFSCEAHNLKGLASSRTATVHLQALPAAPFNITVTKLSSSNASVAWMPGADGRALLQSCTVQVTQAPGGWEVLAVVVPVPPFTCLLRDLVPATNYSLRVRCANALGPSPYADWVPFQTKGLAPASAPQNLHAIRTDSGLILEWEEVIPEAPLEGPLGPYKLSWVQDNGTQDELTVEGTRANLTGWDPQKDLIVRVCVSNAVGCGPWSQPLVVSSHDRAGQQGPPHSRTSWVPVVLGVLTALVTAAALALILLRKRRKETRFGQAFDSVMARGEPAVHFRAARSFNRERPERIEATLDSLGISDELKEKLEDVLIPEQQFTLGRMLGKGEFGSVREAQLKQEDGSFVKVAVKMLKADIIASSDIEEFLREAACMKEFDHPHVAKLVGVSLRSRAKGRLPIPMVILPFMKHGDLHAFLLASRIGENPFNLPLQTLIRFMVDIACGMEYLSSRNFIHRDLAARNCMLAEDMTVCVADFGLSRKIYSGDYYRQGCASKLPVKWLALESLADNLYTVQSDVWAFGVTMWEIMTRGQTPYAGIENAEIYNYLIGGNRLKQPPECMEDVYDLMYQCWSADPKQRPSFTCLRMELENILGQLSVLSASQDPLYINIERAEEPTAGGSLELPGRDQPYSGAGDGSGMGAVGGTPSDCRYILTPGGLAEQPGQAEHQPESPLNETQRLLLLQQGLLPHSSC

O=C(NOC[C@H](O)CO)c1ccc(F)c(F)c1Nc1ccc(I)cc1F
% of control [1]: 74%

CC[C@@H]1[C@H](F)C(=O)N[C@@H]1COc1nccc2cc(C(N)=O)c(OC)cc12 [ZIMLOVISERTIB]
% of inhibition [2]: 9.99% | % of inhibition [3]: -2.2% | % of inhibition [4]: -6.1%

N#Cc1cccc(-c2c[nH]c3ncnc(N4CCOCC4)c23)c1
% of inhibition [5]: 33% | % of inhibition [6]: 30%

C=CC(=O)Nc1cccc(C(=O)Nc2ccc(Nc3cc(-c4[nH]c(SC)nc4C)ccn3)cc2)c1
% of control ([7]; at 1 µM): 100% | % of control ([7]; at 5 µM): 86%
